Structures are written as SMILES.

The target in this assay is T1, human full-length recombinant PKC βII (Homo sapiens, UniProt P05771).
T1 construct: Active human full-length recombinant PKC βII; purchased Invitrogen GmbH, Darmstadt, Germany
T1 sequence (P05771 1-673 isoform P05771-2): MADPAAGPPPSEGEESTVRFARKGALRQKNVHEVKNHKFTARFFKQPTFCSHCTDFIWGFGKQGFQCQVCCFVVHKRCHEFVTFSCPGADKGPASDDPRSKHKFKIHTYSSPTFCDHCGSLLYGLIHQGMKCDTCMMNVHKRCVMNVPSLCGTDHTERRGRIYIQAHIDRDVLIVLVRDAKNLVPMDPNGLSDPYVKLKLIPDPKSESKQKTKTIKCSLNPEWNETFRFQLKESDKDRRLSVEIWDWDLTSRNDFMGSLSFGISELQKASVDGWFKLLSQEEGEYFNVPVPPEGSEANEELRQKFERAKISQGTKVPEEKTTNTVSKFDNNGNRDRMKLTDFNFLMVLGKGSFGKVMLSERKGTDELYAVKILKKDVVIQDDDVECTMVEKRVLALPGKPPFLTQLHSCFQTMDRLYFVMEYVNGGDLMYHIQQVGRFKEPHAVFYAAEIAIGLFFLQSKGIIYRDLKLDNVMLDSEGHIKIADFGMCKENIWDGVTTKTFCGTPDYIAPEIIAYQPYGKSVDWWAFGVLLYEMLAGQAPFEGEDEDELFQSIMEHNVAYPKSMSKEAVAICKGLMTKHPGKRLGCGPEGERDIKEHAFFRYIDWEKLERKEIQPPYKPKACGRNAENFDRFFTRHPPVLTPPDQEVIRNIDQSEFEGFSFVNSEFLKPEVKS
In words: Determination of PKC βII inhibition (Caliper mobility shift kinase assay). Format: biochemical. To be noted: final compound concentration 1.14 μM (±0.15 μM); 60 min incubation at 32° C. The procedure: Determination of PKC βII Inhibition
PKC βII inhibition was determined according to the following protocol:
Active human full-length recombinant PKC βII and the peptide substrate, Fluorescein-RFARKGSLRQKNV, were purchased from Invitrogen GmbH, Darmstadt, Germany. Adenosine-5′-triphosphate (ATP), bovine serum albumine (BSA), dimethylsulphoxide (DMSO), 4-(2-hydroxyethyl)piperazine-1-ethanesulfonic acid (Hepes), Triton X-100, 1,2-Dioleoyl-sn-glycerol (DAG), L-α-Phosphatidyl-L-serine (PS), calcium chloride (CaCl2), and Pluronic F-68 were purchased from Sigma-Aldrich, Munich, Germany. Magnesium chloride, 1 M sodium hydroxide solution, 1M hydrochloric acid solution and EDTA were obtained from Merck Biosciences, Darmstadt, Germany.
Test compounds were diluted to three times the test concentration in buffer 1 (30 mM Hepes-NaOH, pH 7.4, 0.01% Pluronic F-68 and 3% (v/v) DMSO). The […] enzyme was diluted to a concentration of 30 ng/ml in buffer 2 (30 mM Hepes-NaOH, pH 7.4, 15 mM MgCl2, 150 μM CaCl2, 150 μg/ml PS, 60 μg/ml DAG, and 0.045% (w/v) Triton X-100). The peptide substrate and ATP were diluted to concentrations of 3 μM and 120 μM, respectively, in buffer 2. Two μl of the compound solution were mixed with 2 μl of the diluted enzyme in a 384-well small volume microtiter plate (Greiner, Bio-One, Frickenhausen, Germany), and the kinase reaction was initiated by addition of 2 μl of the solution containing peptide substrate and ATP. After 60 min incubation at 32° C., the reaction was stopped by addition of 20 μl of a solution containing 130 mM Hepes-NaOH, pH 7.4, 0.0195% (v/v) Brij-35, 6.5 mM EDTA, 0.13% chip coating reagent 3 (Caliper Lifescience Inc, Hopkinton, Mass.) and 6.5% (v/v) DMSO. Phosphorylation of the substrate peptide was then detected on a Caliper 3000 instrument essentially as described by Pommereau et al (J. Biomol. Screening 2004, 9(5), 409-416). Separation conditions were as follows: Pressure −0.8 psi, upstream voltage −3000 V, downstream voltage −800 V. Positive controls (buffer 1 instead of compound) and negative controls (buffer 1 instead of compound and buffer 2 instead of kinase solution) were run in parallel on each plate. Fractional turnover (R) was determined as the height of the peak of the phosphorylated peptide product divided by the sum of the unphosphorylated substrate and phosphorylated product peak heights. Percent-inhibition values for the test compounds were determined using the formula % Inhibition=100*(1−(Rcompound−Rnegative control)/(Rpositive control−Rnegative control).
In the following table % inhibition values observed with example compounds at a final concentration of 1.14 μM (±0.15 μM) are listed: […]
On to `Cc1n[nH]c2nc(-c3ccc(O)cc3F)cc(CN3C[C@@H](c4ccccc4)NC[C@@H]3C)c12` (relative stereo) [Example 29, 3-Fluoro-4-[3-methyl-4-(trans-2-methyl-5-phenyl-piperazin-1-ylmethyl)-1H-pyrazolo[3,4-b]pyridin-6-yl]-phenol], for which the “% Inhibition” value worked out at 90%.

As to `Cc1n[nH]c2nc(-c3ccc(O)cc3)cc(CN3C[C@@H](C)NC[C@@H]3c3ccccc3)c12` (relative stereo) [Example 43, 4-[3-Methyl-4-(trans-5-methyl-2-phenyl-piperazin-1-ylmethyl)-1H-pyrazolo[3,4-b]pyridin-6-yl]-phenol], the “% Inhibition” value is recorded as 58%.

For `Cc1n[nH]c2nc(-c3ccc(O)cc3F)cc(CN3CCNCC3c3ccccc3)c12` (stereo not drawn) [Example 1, 3-Fluoro-4-[3-methyl-4-(2-phenyl-piperazin-1-ylmethyl)-1H-pyrazolo[3,4-b]pyridin-6-yl]-phenol], the inhibition at 1.14 µM came to 95%.

As for `Cc1n[nH]c2nc(-c3ccc(O)cc3F)cc(CN3CCNCC3c3ccc(C(C)C)cc3)c12` (stereo not drawn) [Example 2, 3-Fluoro-4-{4-[2-(4-isopropyl-phenyl)-piperazin-1-ylmethyl]-3-methyl-1H-pyrazolo[3,4-b]pyridin-6-yl}-phenol], the inhibition at 1.14 µM is 65%.

Turning to `Cc1n[nH]c2nc(-c3ccc(O)cc3F)cc(CN3CCNCC3c3ccc(C(F)(F)F)cc3)c12` (stereo not drawn) [Example 3], the inhibition at 1.14 µM was determined as 68%.

As to `Cc1n[nH]c2nc(-c3ccc(O)cc3F)cc(CN3CCNCC3c3ccc(F)cc3)c12` (stereo not drawn) [Example 4, 3-Fluoro-4-{4-[2-(4-fluoro-phenyl)-piperazin-1-ylmethyl]-3-methyl-1H-pyrazolo[3,4-b]pyridin-6-yl}-phenol], the inhibition at 1.14 µM came to 94%.

Regarding `Cc1n[nH]c2nc(-c3ccc(O)cc3F)cc(CN3CCNCC3C(F)(F)F)c12` (stereo not drawn) [Example 5, 3-Fluoro-4-[3-methyl-4-(2-trifluoromethyl-piperazin-1-ylmethyl)-1H-pyrazolo[3,4-b]pyridin-6-yl]-phenol], the inhibition at 1.14 µM is 109%.

Turning to `Cc1n[nH]c2nc(-c3ccc(O)cc3F)cc(CN3CCNCC3c3cccc(F)c3)c12` (stereo not drawn) [Example 6, 3-Fluoro-4-{4-[2-(3-fluoro-phenyl)-piperazin-1-ylmethyl]-3-methyl-1H-pyrazolo[3,4-b]pyridin-6-yl}-phenol], the inhibition at 1.14 µM was determined as 91%.

With `Cc1n[nH]c2nc(-c3ccc(O)cc3F)cc(CN3CCNCC34CCCC4)c12` [Example 7, 4-[4-(6,9-Diaza-spiro[4.5]dec-6-ylmethyl)-3-methyl-1H-pyrazolo[3,4-b]pyridin-6-yl]-3-fluoro-phenol], the inhibition at 1.14 µM is 103%.

On to `Cc1n[nH]c2nc(-c3ccc(O)cc3F)cc(CN3CCNCC3c3cccc(C(F)(F)F)c3)c12` (stereo not drawn) [Example 8, 3-Fluoro-4-{3-methyl-4-[2-(3-trifluoromethyl-phenyl)-piperazin-1-ylmethyl]-1H-pyrazolo[3,4-b]pyridin-6-yl}-phenol], for which the inhibition at 1.14 µM was found to be 92%.

On to `Cc1n[nH]c2nc(-c3ccc(O)cc3F)cc(CN3CCNCC3c3cc(F)cc(F)c3)c12` (stereo not drawn) [Example 9, 4-{4-[2-(3,5-Difluoro-phenyl)-piperazin-1-ylmethyl]-3-methyl-1H-pyrazolo[3,4-b]pyridin-6-yl}-3-fluoro-phenol], for which the inhibition at 1.14 µM is 81%.

With `Cc1n[nH]c2nc(-c3ccc(O)cc3F)cc(CN3CCNCC3c3ccccc3F)c12` (stereo not drawn) [Example 10, 3-Fluoro-4-{4-[2-(2-fluoro-phenyl)-piperazin-1-ylmethyl]-3-methyl-1H-pyrazolo[3,4-b]pyridin-6-yl}-phenol], the inhibition at 1.14 µM worked out at 102%.

Regarding `Cc1n[nH]c2nc(-c3ccc(O)cc3F)cc(CN3CC(C)NCC3(C)C)c12` (stereo not drawn) [Example 11, 3-Fluoro-4-[3-methyl-4-(2,2,5-trimethyl-piperazin-1-ylmethyl)-1H-pyrazolo[3,4-b]pyridin-6-yl]-phenol], the inhibition at 1.14 µM amounted to 104%.

Turning to `Cc1n[nH]c2nc(-c3ccc(O)cc3F)cc(CN3CCNCC3(C)c3ccccc3)c12` (stereo not drawn) [Example 12, 3-Fluoro-4-[3-methyl-4-(2-methyl-2-phenyl-piperazin-1-ylmethyl)-1H-pyrazolo[3,4-b]pyridin-6-yl]-phenol], the inhibition at 1.14 µM is 94%.

`Cc1n[nH]c2nc(-c3ccc(O)cc3F)cc(CN3CCNCC3)c12` [Example 13, 3-Fluoro-4-(3-methyl-4-piperazin-1-ylmethyl-1H-pyrazolo[3,4-b]pyridin-6-yl)-phenol]: the inhibition at 1.14 µM came out at 81%.

Regarding `Cc1n[nH]c2nc(-c3ccc(O)cc3F)cc(CN3CCNCC34CC4)c12` [Example 14, 4-[4-(4,7-Diaza-spiro[2.5]oct-4-ylmethyl)-3-methyl-1H-pyrazolo[3,4-b]pyridin-6-yl]-3-fluoro-phenol], the inhibition at 1.14 µM amounted to 98%.

In the case of `Cc1n[nH]c2nc(-c3ccc(O)cc3F)cc(CN3CC(C)(C)NCC34CCCC4)c12` [Example 15, 4-[4-(8,8-Dimethyl-6,9-diaza-spiro[4.5]dec-6-ylmethyl)-3-methyl-1H-pyrazolo[3,4-b]pyridin-6-yl]-3-fluoro-phenol], the inhibition at 1.14 µM was determined as 96%.

For `Cc1n[nH]c2nc(-c3ccc(O)cc3F)cc(CN3CC(C)NCC34CCCC4)c12` (stereo not drawn) [Example 16, 3-Fluoro-4-[3-methyl-4-(8-methyl-6,9-diaza-spiro[4.5]dec-6-ylmethyl)-1H-pyrazolo[3,4-b]pyridin-6-yl]-phenol], the inhibition at 1.14 µM came to 99%.

For `Cc1n[nH]c2nc(-c3ccc(O)cc3F)cc(CN3CCNCC34CCC4)c12` [Example 17, 4-[4-(5,8-Diaza-spiro[3.5]non-5-ylmethyl)-3-methyl-1H-pyrazolo[3,4-b]pyridin-6-yl]-3-fluoro-phenol], the inhibition at 1.14 µM was determined as 98%.

Regarding `CCC1(CC)CNCCN1Cc1cc(-c2ccc(O)cc2F)nc2[nH]nc(C)c12` [Example 18, 4-[4-(2,2-Diethyl-piperazin-1-ylmethyl)-3-methyl-1H-pyrazolo[3,4-b]pyridin-6-yl]-3-fluoro-phenol], the inhibition at 1.14 µM came out at 98%.

On to `Cc1n[nH]c2nc(-c3ccc(O)cc3F)cc(CN3CC(C)NCC3C(F)(F)F)c12` (stereo not drawn) [Example 19, 3-Fluoro-4-[3-methyl-4-(5-methyl-2-trifluoromethyl-piperazin-1-ylmethyl)-1H-pyrazolo[3,4-b]pyridin-6-yl]-phenol], for which the inhibition at 1.14 µM is 99%.

Consider `Cc1n[nH]c2nc(-c3ccc(O)cc3F)cc(CN3CC(C(C)C)NCC3(C)C)c12` (stereo not drawn) [Example 20, 3-Fluoro-4-[4-(5-isopropyl-2,2-dimethyl-piperazin-1-ylmethyl)-3-methyl-1H-pyrazolo[3,4-b]pyridin-6-yl]-phenol], for which the inhibition at 1.14 µM came out at 98%.

Consider `CCC1(C)CN(Cc2cc(-c3ccc(O)cc3F)nc3[nH]nc(C)c23)C(C)(C)CN1` (stereo not drawn) [Example 21, 4-[4-(5-Ethyl-2,2,5-trimethyl-piperazin-1-ylmethyl)-3-methyl-1H-pyrazolo[3,4-b]pyridin-6-yl]-3-fluoro-phenol], for which the inhibition at 1.14 µM is 93%.

Turning to `CCC1(CC)CN(Cc2cc(-c3ccc(O)cc3F)nc3[nH]nc(C)c23)C(C)(C)CN1` [Example 22, 4-[4-(5,5-Diethyl-2,2-dimethyl-piperazin-1-ylmethyl)-3-methyl-1H-pyrazolo[3,4-b]pyridin-6-yl]-3-fluoro-phenol], the inhibition at 1.14 µM worked out at 89%.

In general, % Inhibition refers to the change of the read-out against control, counted positive when it falls. For orientation: inhibition means the change of the read-out against control, counted positive when it falls.

Values taken from patent US9133181B2, “Substituted 6-(4-hydroxy-phenyl)-1H-pyrazolo[3,4-b]pyridine derivatives as kinase inhibitors” (SANOFI, priority 2012, dated 2015).
